Source: article PMC6324813, “Biological evaluation of isoflavonoids from Genista halacsyi using estrogen-target cells: Activities of glucosides compared to aglycones” (PLoS ONE, 2019)
Like-named read-outs stand apart in the source and are kept apart here.

Experiments:
MCF-7 cells = test: MCF-7 cell proliferation (MTT); format: cell-based, human; details: for activation at 1 µM: Homo sapiens, MCF7, 72 h, read-out: Induction of cell proliferation (MCF-7 cells) Agonism at 1μΜ (% of 0.1nM E2)
Method: Test compound effects on the proliferation of MCF-7 and MDA-MB-231 cells were assessed as previously described.

Ishikawa cells = test: Induction of AlkP expression in Ishikawa cells; format: cell-based, human; details: for Induction of Alkaline Phosphatase Expression (Ishikawa cells) AUC (%): % of AUC of luciferase response of archetypal 3, 4, 5 or 8 up to 0.3, 10, 1.0 and 3.0 μM; for EC (25% of 0.1 nM E2 effect) / activation at 1 µM / EC50: Homo sapiens, Ishikawa; for EC (25% of 0.1 nM E2 effect) / activation at 1 µM / Induction of AlkP expression (Ishikawa cells) Agonism at 1μΜ, class: 72 h; for EC (25% of 0.1 nM E2 effect): concentration required to achieve 25% of the effect of 0.1 nM E2, read-out: Induction of Alkaline Phosphatase Expression (Ishikawa cells) EC25E2; for activation at 1 µM: read-out: Induction of AlkP expression (Ishikawa cells) Agonism at 1μΜ (% of 0.1nM E2); for EC50: concentration required to achieve 50% of the effect of 0.1 nM E2, read-out: Induction of Alkaline Phosphatase Expression (Ishikawa cells) EC50E2; for Ratio of AUC (AlkP / Lucif): AUCAlkP / AUCluciferase; for Induction of AlkP expression (Ishikawa cells) Agonism at 1μΜ, class: compounds 1 μM
Method: Induction of AlkP expression of Ishikawa cells is considered as a reliable in vitro measure of estrogenic activity. Assessment of AlkP expression in Ishikawa cells was carried as already described. Briefly, the cells were plated in 96-well plates at a density of 12,000 cells per well in phenol-red-free MEM supplemented with 1 μg/mL insulin and 5% DCC-FBS. […] Data on the dependence of AlkP activity on isoflavonoid concentration were curve fitted using SigmaPlot10 (SPSS Inc) and the numerical data of curve fitting were used to determine AUC as described above, using for the calculation of AUC of a particular AlkP response the very same concentration used for the respective luciferase response. The AUC of AlkP responses of the isoflavonoids of a group were expressed as % of the AUC of the luciferase response of the respective archetypal isoflavone.

MDA-MB-231 cells = test: MDA-MB-231 cell proliferation (MTT); format: cell-based; details: 0.1 nM estradiol, 1 μM ICI182,780, isoflavonoids 1 μM
Method: Test compound effects on the proliferation of MCF-7 and MDA-MB-231 cells were assessed as previously described. […] Relative numbers of cells exposed to estradiol or to ICI182,780 acted as positive and negative control, respectively.

TNFα mRNA = details: 1–10 μM, ER-independent; cited from earlier work
ERα [1] = biological target: T1, ERα (Homo sapiens, UniProt P03372); parameters: purchased Invitrogen; details: cited from earlier work
T1 sequence (P03372 1-595): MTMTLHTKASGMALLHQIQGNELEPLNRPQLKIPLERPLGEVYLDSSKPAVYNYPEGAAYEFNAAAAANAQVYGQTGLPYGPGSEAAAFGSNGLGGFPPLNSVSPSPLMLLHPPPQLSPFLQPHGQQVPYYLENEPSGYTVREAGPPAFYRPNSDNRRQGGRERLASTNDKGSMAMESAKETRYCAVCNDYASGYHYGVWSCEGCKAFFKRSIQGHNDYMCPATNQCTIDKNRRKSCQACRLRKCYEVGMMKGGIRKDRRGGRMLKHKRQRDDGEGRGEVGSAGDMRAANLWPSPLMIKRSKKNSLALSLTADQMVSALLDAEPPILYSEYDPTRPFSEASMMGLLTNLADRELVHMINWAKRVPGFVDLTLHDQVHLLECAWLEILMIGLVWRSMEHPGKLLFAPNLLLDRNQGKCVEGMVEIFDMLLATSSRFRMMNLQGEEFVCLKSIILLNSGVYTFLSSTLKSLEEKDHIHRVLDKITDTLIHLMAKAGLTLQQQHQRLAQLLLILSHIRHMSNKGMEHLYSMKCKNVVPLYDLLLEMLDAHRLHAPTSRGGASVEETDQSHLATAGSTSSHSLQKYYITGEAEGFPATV

ERβ [2] = biological target: T2, ERβ (Homo sapiens, UniProt Q92731); parameters: purchased Invitrogen; details: cited from earlier work
ERβ [3] = biological target: T2, ERβ; test: ERE-dependent luciferase gene transcription in HEK:ERβ cells; format: cell-based; parameters: expressed in transfected cells; host or cells: HEK-293 (HEK:ERβ clone, with pERE-tk-Luciferase); details: for activation at 1 µM: read-out: Induction of luciferase gene transcription through ERβ, HEK:ERβ cells, Agonism at 1μΜ (% of 0.1nM E2)
Method: (§1) Assessment of ER/ERE-dependent luciferase gene transcription in MCF-7:D5L (express ERα) and HEK:ERβ cells (express ERβ) and determination of ER transcriptional agonism was carried as already described. Briefly, the cells were plated in 96-well plates at a density of 12,000 cells per well in phenol-red-free MEM (MCF-7:D5L cells) or phenol-red-free DMEM (HEK:ERβ cells) supplemented with 1 μg/mL insulin and 5% DCC-FBS. […] The AUC of the isoflavonoids of each group were then expressed as % of the AUC of the respective archetypal isoflavone. Since AUC data combine the efficacy as well as the potency of cell response into a single parameter, the %AUC data were considered here as a more reliable measure of relative ER/ERE-dependent luciferase expression of the test compounds.

ERα [4] = biological target: T1, ERα; test: ERE-dependent luciferase gene transcription in MCF-7:D5L cells; format: cell-based; parameters: MCF-7:D5L cells, a clone of MCF-7 cells stably transfected with an Estrogen Response Element (ERE)-endowed reporter plasmid; endogenous in cells; host or cells: MCF-7:D5L (MCF-7 clone carrying pERE-Gl-Luciferase); details: for Induction of ERE-dependent Luciferase Transcription (MCF-7:D5L cells) AUC (%): % of AUC of luciferase response of archetypal 3, 4, 5 or 8 up to 0.3, 10, 1.0 and 3.0 μM; for Induction of luciferase gene transcription through ERα, MCF-7:D5L cells, Agonism at 1μΜ (% of 0.1nM E2): estradiol 0.1 nM; for Induction of ERE-dependent Luciferase Transcription (MCF-7:D5L cells) EC25E2: concentration required to achieve 25% of the effect of 0.1 nM E2; for ERα-dependent gene transcription agonist effect compared to the effect of 0.1 nM estradiol: isoflavonoids 1 μM, statistically significant effects; for EC50: concentration required to achieve 50% of the effect of 0.1 nM E2, read-out: Induction of ERE-dependent Luciferase Transcription (MCF-7:D5L cells) EC50E2
Method: as §1

ERβ [5] = biological target: T2, ERβ; test: ER binding competitor assay (fluorescent estrogen ES2), ERβ; parameters: purchased Invitrogen; details: for RBAβ / RBAα: ERβ-binding selectivity
ERα [6] = biological target: T1, ERα; test: ER binding competitor assay (fluorescent estrogen ES2), ERα; parameters: purchased Invitrogen; details: RBA = (IC50 estradiol/IC50 compound) × 100; ES2 1 nM; estradiol set equal to 100
[7] = 1 μM ICI182,780, isoflavonoids 1 μM
[8] = isoflavonoids 1 μM, statistically significant effects

T2 sequence (Q92731 whole entry): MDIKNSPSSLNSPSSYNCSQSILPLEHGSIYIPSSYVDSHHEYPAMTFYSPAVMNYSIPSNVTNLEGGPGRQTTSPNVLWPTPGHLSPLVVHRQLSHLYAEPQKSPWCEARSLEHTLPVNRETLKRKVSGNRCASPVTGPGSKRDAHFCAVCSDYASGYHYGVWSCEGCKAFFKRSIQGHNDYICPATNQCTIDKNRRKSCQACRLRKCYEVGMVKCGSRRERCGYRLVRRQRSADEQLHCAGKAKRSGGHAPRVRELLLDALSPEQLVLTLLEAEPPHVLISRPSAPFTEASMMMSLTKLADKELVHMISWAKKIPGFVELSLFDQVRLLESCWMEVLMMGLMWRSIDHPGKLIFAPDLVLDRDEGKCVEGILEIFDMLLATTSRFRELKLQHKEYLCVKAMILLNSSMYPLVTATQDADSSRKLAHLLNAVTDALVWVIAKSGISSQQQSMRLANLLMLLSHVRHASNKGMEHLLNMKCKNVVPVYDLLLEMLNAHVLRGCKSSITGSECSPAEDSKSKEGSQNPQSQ

| Structure (SMILES) | mean value (and the range) of previously reported RBAα (ERα [1]) | activation at 1 µM (MCF-7 cells) | Induction of Alkaline Phosphatase Expression (Ishikawa cells) AUC (%) (Ishikawa cells) | EC (25% of 0.1 nM E2 effect) (Ishikawa cells) | activation at 1 µM (Ishikawa cells) | EC50 (Ishikawa cells) | mean value (and the range) of previously reported RBAβ (ERβ [2]) | Induction of ERE-dependent Luciferase Transcription (MCF-7:D5L cells) AUC (%) (ERα [4]) | Induction of luciferase gene transcription through ERα, MCF-7:D5L cells, Agonism at 1μΜ (% of 0.1nM E2) (ERα [4]; compounds 1 μM, 18 h) | Induction of ERE-dependent Luciferase Transcription (MCF-7:D5L cells) EC25E2 (ERα [4]) | ERα-dependent gene transcription agonist effect compared to the effect of 0.1 nM estradiol (ERα [4]) | Ratio of AUC (AlkP / Lucif) (Ishikawa cells) | Induction of AlkP expression (Ishikawa cells) Agonism at 1μΜ, class (Ishikawa cells) | RBAβ / RBAα (ERβ [5]) | activation at 1 µM (ERβ [3]; 18 h) | EC50 (ERα [4]) | RBAα (ERα [6]) | other results |
| --- | --- | --- | --- | --- | --- | --- | --- | --- | --- | --- | --- | --- | --- | --- | --- | --- | --- | --- |
| C[C@]12CC[C@@H]3c4ccc(O)cc4C[C@@H](CCCCCCCCC[S+]([O-])CCCC(F)(F)C(F)(F)F)[C@H]3[C@@H]1CC[C@@H]2O (stereo partly shown) [ICI182,780, reference compound] |  |  |  |  |  |  |  |  |  |  |  |  |  |  |  |  |  | suppression of isoflavonoid cell proliferation effects (MCF-7 cells; [7]): fully suppressed; suppression of isoflavonoid-induced AlkP expression (Ishikawa cells; [7]): fully suppressed; proliferation of MDA-MB-231 cells (MDA-MB-231 cells): not affected |
| Oc1ccc(C2COc3cc(O)ccc3C2)cc1 (stereo not shown) [equol, 4',7-isoflavandiol] |  |  |  |  |  |  |  |  |  |  |  |  |  |  |  |  |  | suppression of LPS-induced TNFα mRNA expression and cytokine release (TNFα mRNA): dose-dependent suppression |
| O=c1c(-c2ccc(O)cc2)coc2cc(O)ccc12 [Compound 5, daidzein] | 0.20 (0.01–0.55) | 59 ± 7% | 104±19% | 0.46 ± 0.05 µM | 54 ± 4% | 1300 ± 150 nM | 0.65 (0.04–2.11) | 100±13% | 50 ± 12 (Partial) ^* % of 0.1nM E2 | 380 ± 70 nM | lower than |  |  |  |  |  |  | RBAβ (ERβ [2]; estradiol = 100, ref 27 (Halabalaki et al.)): 0.36 ± 0.09; Induction of luciferase gene transcription through ERβ, HEK:ERβ cells, Agonism at 1μΜ (% of 0.1nM E2) (ERβ [3]; compounds 1 μM, estradiol 0.1 nM, 18 h): 84 ± 8 (Full) % of 0.1nM E2 |
| COc1cc(-c2coc3cc(O)cc(OC)c3c2=O)ccc1O [Compound 6, 3΄-methoxyisoprunetin] |  | 32 ± 3% | 182±8 % | 1.6 ± 0.05 µM |  | 2610 ± 290 nM |  | 289±14 % | 22 ± 5 (Weak) ^* % of 0.1nM E2 | 980 ± 70 nM | lower than | 0.63±0.01 | Marginal (⩽10%) | 4.50 | 81 ± 5% | 1570 ± 240 nM | 0.14 ± 0.04 | MCF-7 cell proliferation agonist effect compared to the effect of 0.1 nM estradiol (MCF-7 cells; [8]): lower than; AlkP response lower than ERα-transcriptional response (relative AUC ratios) (Ishikawa cells): ~ 30% |
| COc1ccc(-c2coc3cc(O)cc(O)c3c2=O)cc1 [Compound 1, Biochanin A] | 0.18 (0.02–0.34) | 70 ± 10% | 26±2 % | 0.19 ± 0.01 µM | 53 ± 9% | 420 ± 30 nM | 0.69 (0.18–1.20) | 33±8 % | 83 ± 16 (Full) % of 0.1nM E2 | 160 ± 90 nM |  | 0.79±0.04 |  |  | 31 ± 15% | 300 ± 30 nM |  | AlkP-inducing agonist effect compared to the effect of 0.1 nM estradiol (Ishikawa cells; [8]): lower than; RBAβ / RBAα (ERβ [2]; ERβ-binding selectivity, ref 51 (Fokialakis et al.)): 3.83; selectivity for ERβ (class of RBAβ/RBAα) (ERβ [5]): moderate (3–10); ERβ-dependent gene transcription agonist effect compared to the effect of 0.1 nM estradiol (ERβ [3]; [8]): lower than |
| COc1ccc(-c2coc3c(OC)c(O)ccc3c2=O)cc1 [Compound 2, 8-methoxyformononetin] |  |  | 0.5±0.2 % | > 30 µM |  | > 30000 nM |  | 0.7±0.1 % |  | >30000 nM |  | 0.71±0.15 | Marginal (⩽10%) | 2.50 |  | > 30000 nM | 0.06 ± 0.02 | Induction of cell proliferation (MCF-7 cells) Agonism at 1μΜ, class (MCF-7 cells; compounds 1 μM, 72 h): Marginal (⩽10%); RBAβ (ERβ [5]; RBA = (IC50 estradiol/IC50 compound) × 100, ES2 1 nM, estradiol set equal to 100): 0.15 ± 0.04; Induction of luciferase gene transcription, HEK:ERβ cells, Agonism at 1μΜ, class (ERβ [3]; compounds 1 μM, 18 h): Marginal (⩽10%); Induction of luciferase gene transcription, MCF-7:D5L cells, Agonism at 1μΜ, class (ERα [4]; compounds 1 μM, 18 h): Marginal (⩽10%) |
